Where “and” joins values, the source holds several entries; their conditions need not be identical. Equal entries are not always repeated. Entries after “also recorded” stand apart in the source; their conditions may differ. Where two headings read alike, the source gives them in different places.
Experiments:
VEGFR2 = VEGFR2 (Homo sapiens, UniProt P35968); assay: Biochemical kinase assay, VEGFR2; conditions: for inhibition at 10 µM: read-out: Percent inhibition at 10 μM; for IC50: n=1, 10‐dose IC50 mode with twofold serial dilutions, starting at 10 μM
HEK293T/17 cells = conditions: for Cytostatic effect at concentrations above: 200–0.4 μM range; for Cytostatic effect (in words): HEK293T/17 cells
Pseudotyped SARS CoV2 = format: cell-based; conditions: HEK293T/17 with ACE2 and TMPRSS2, 48 hours, toxic concentrations excluded, normalised data
SARS‐CoV‐2 M^pro = biological target: T1, SARS‐CoV‐2 M^pro (Severe acute respiratory syndrome coronavirus 2, UniProt P0DTD1); assay: M^Pro inhibition (fluorescence‐based turnover assay / dose response); format: biochemical; conditions: enzyme inhibition; 17: fluorescence‐based turnover assay
T1 construct: M^pro releases the functional polypeptides from the polyproteins by extensive proteolytic processing

human HDHODH = human HDHODH (Homo sapiens, UniProt Q02127); assay: HDHODH inhibition, in vitro fluorescence‐based assays run by Reaction Biology; format: biochemical
Chain of human HDHODH (Q02127 whole entry): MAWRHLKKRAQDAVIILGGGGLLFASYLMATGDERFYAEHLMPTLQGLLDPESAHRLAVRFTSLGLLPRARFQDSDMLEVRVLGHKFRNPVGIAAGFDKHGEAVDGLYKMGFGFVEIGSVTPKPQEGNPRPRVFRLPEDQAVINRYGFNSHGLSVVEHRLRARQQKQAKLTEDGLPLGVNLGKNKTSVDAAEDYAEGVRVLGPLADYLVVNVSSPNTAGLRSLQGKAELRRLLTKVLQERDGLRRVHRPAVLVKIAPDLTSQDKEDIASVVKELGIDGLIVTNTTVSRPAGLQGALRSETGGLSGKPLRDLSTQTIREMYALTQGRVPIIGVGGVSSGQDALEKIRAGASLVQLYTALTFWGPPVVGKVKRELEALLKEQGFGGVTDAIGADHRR

Chain of VEGFR2 (P35968 20-1356): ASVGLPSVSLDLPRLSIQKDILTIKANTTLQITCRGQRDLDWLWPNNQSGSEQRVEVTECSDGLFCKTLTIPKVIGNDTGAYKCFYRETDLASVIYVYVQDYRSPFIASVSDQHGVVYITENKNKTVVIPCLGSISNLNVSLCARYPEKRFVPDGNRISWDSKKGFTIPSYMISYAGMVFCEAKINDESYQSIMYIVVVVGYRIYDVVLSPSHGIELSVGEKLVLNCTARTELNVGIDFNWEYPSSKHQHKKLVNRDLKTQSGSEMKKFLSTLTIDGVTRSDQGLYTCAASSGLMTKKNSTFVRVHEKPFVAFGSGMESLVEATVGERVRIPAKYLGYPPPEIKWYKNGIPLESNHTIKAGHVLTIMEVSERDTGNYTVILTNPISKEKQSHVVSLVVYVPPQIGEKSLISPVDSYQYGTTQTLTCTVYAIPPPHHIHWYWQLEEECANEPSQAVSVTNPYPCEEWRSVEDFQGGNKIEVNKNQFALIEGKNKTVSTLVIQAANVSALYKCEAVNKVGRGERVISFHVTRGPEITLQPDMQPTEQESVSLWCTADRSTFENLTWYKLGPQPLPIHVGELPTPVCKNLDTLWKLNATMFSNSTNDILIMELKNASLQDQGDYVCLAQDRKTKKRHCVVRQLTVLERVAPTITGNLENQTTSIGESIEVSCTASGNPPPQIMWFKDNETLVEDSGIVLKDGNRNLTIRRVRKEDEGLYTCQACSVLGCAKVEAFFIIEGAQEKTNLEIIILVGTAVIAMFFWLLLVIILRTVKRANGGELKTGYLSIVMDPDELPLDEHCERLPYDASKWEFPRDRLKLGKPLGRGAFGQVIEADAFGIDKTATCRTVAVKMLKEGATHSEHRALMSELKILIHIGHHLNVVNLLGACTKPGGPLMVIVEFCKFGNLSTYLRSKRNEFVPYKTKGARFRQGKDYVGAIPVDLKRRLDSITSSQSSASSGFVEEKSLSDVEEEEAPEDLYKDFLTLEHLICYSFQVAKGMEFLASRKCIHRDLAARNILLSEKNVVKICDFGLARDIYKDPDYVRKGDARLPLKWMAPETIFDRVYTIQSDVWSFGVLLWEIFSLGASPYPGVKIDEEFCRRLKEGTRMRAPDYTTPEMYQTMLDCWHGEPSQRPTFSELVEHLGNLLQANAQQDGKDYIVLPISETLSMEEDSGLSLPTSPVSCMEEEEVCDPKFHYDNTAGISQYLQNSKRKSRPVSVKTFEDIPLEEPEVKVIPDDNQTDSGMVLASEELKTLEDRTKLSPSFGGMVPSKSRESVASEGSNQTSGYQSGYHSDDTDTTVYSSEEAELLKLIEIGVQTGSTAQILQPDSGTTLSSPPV

## CN1C(=O)C2(CCOCC2)c2cc(S(F)(F)(F)(F)F)ccc21 [11 b, 1‐Methyl‐5‐(pentafluoro‐λ^6‐sulfanyl)‐1,2‐dihydrospiro[indole‐ 3,4′‐oxan]‐2‐one]
other
  melting point: 158 °C

## Cc1cc(C)c(/C=C2\C(=O)Nc3cc(S(F)(F)(F)(F)F)ccc32)[nH]1 [9 a, (3Z)‐3‐[(3,5‐Dimethyl‐1H‐pyrrol‐2‐yl)methylidene]‐6‐(pentafluoro‐λ^6‐sulfanyl)‐2,3‐dihydro‐1H‐indol‐2‐one]
VEGFR2
  inhibition at 10 µM: 23%
  IC50: did not manifest sufficient inhibition to generate IC50 values
other
  melting point: 199 to 201 °C

## CS(=O)(=O)N1CCN(C(=O)c2cccc(S(F)(F)(F)(F)F)c2)CC1 [3 f, (3‐Pentafluoro‐λ^6‐sulfanyl phenyl)(4‐(methylsulfonyl)piperazin‐1‐yl)methanone]
other
  melting point: 159 to 160 °C

## O=C(c1cccc(S(F)(F)(F)(F)F)c1)N1CCCCC1 [3 a, [3‐(Pentafluoro‐λ^6‐sulfanyl)phenyl](piperidin‐1‐yl)methanone]
other
  melting point: 88 to 90 °C

## C/C(O)=C(\C#N)C(=O)Nc1ccc(C(F)(F)F)cc1 [Teriflunomide, reference compound]
HEK293T/17 cells; HEK293T/17, MTS, 48 hours
  Cytostatic effect at concentrations above: above 0.78 μM
HEK293T/17 cells
  Cytostatic effect (in words): cytostatic
HEK293T/17 cells; listed as teriflunomide
  Cytostatic effect (in words): strong cytostatic
Pseudotyped SARS CoV2; listed as teriflunomide
  Effect on SARS‐CoV‐2 infection of target cells (in words): no effect

## N#C/C(C(=O)Nc1ccc(F)cc1)=C(/O)c1ccc(Cl)cc1 [compound 17]
SARS‐CoV‐2 M^pro
  IC50: 230 nM
Human HDHODH
  Activity versus HDHODH (in words): inactive; also recorded: no affinity
Human HDHODH; HDHODH, 10 μM, read-out: Percent inhibition at 10 μM
  inhibition at 10 µM: < 10%
HEK293T/17 cells; HEK293T/17, MTS, 48 hours
  Cells healthy up to: up to 50 μM
HEK293T/17 cells
  Cytostatic effect (in words): less cytostatic
Pseudotyped SARS CoV2
  Effect on SARS‐CoV‐2 infection of target cells (in words): enhancing effect

## O=C(c1cccc(S(F)(F)(F)(F)F)c1)N1CCOCC1 [3 c, [3‐(Pentafluoro‐λ^6‐sulfanyl)phenyl](morpholino)methanone]
other
  melting point: 63 to 64 °C

## O=C1Nc2ccc(S(F)(F)(F)(F)F)cc2C12CCOCC2 [11 a, 5‐(Pentafluoro‐λ^6‐sulfanyl)‐1,2‐dihydrospiro[indole‐3,4′‐ oxan]‐2‐one]
other
  melting point: 247 to 249 °C

## CC(C)=C1C(=O)Nc2ccc(S(F)(F)(F)(F)F)cc21 [8 b, 5‐(Pentafluoro‐λ^6‐sulfanyl)‐3‐(propan‐2‐ylidene)‐2,3‐dihydro‐1H‐indol‐2‐one]
other
  melting point: 191 to 194 °C

## Cc1oncc1C(=O)Nc1ccc(S(F)(F)(F)(F)F)cc1 [compound 15, 5‐Methyl‐N‐[4‐(pentafluoro‐λ^6‐sulfanyl)phenyl]‐1,2‐oxazole‐ 4‐carboxamide]
other
  melting point: 167 to 168 °C
Human HDHODH; IC50, HDHODH inhibition
  IC50: 365 nM
HEK293T/17 cells
  Cytostatic effect (in words): cytostatic
Pseudotyped SARS CoV2
  Effect on SARS‐CoV‐2 infection of target cells (in words): satisfactory inhibition of SARS‐CoV‐2 infection

## C/C(O)=C(\C#N)C(=O)Nc1ccc(S(F)(F)(F)(F)F)cc1 [compound 16, (2Z)‐2‐Cyano‐3‐hydroxy‐N‐[4‐(pentafluoro‐λ^6‐sulfanyl)phenyl] but‐2‐enamide]
other
  melting point: 167 to 170 °C
Human HDHODH; IC50, HDHODH inhibition
  IC50: 27 nM
Human HDHODH; IC50, individual determinations behind the mean (n=2), HDHODH inhibition
  IC50: 29 nM and 25 nM
Human HDHODH; relative to Teriflunomide, listed as SF5‐Teriflunomide
  Activity/affinity towards HDHODH compared with Teriflunomide: approximately twice as active; also recorded: approximately two‐fold greater affinity
HEK293T/17 cells; HEK293T/17, MTS, 48 hours
  Cytostatic effect at concentrations above: > 3.1 µM
HEK293T/17 cells
  Cytostatic effect (in words): cytostatic
HEK293T/17 cells; listed as SF5-teriflunomide
  Cytostatic effect (in words): strong cytostatic
Pseudotyped SARS CoV2; listed as SF5-teriflunomide
  Effect on SARS‐CoV‐2 infection of target cells (in words): no effect

## Cc1cc(C)c(/C=C2\C(=O)Nc3ccc(S(F)(F)(F)(F)F)cc32)[nH]1 [8 a, (3Z)‐3‐[(3,5‐Dimethyl‐1H‐pyrrol‐2‐yl)methylidene]‐5‐(pentafluoro‐λ^6‐sulfanyl)‐2,3‐dihydro‐1H‐indol‐2‐ one]
VEGFR2
  inhibition at 10 µM: 27%
  IC50: did not manifest sufficient inhibition to generate IC50 values
other
  melting point: 203 to 205 °C

— publication PMC9305131, “Expanding the Repertoire of Low‐Molecular‐Weight Pentafluorosulfanyl‐Substituted Scaffolds” (Chemmedchem, 2022)
